# Experimental data as given in PubChem BioAssay AID743457 (The Scripps Research Institute Molecular Screening Center, 2014).
# Activity calls are given as the source filed them.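 How the source made its calls: active means IC50 at or below a set limit; inactive means IC50 above that limit.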
# Target: Group 3 secretory phospholipase A2 (Homo sapiens) (UniProt Q9NZ20)
# Test: human group III sPLA2 inhibitors, dose response, biochemical, QFRET, IC50 (AID 743457)
# Conditions: recombinant hGIII-sPLA2, BODIPY PC-A2 QFRET fluorescence
# Group 3 secretory phospholipase A2 (Homo sapiens), sequence (Q9NZ20 whole entry, looked up): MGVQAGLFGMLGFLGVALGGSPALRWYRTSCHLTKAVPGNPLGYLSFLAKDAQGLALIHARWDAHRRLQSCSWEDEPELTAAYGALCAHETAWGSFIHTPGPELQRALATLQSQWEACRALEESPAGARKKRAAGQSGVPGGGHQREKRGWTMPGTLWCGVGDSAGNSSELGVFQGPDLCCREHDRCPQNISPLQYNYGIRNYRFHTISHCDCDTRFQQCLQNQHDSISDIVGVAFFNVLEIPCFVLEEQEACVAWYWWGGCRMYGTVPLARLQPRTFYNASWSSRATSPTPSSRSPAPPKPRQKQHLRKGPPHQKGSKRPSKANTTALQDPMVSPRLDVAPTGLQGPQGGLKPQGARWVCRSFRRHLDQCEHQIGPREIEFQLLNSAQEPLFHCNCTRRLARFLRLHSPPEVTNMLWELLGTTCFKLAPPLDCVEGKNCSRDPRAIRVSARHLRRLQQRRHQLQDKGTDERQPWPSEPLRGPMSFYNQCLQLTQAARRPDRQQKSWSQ
row,SMILES,IC50
1,COc1ccc(C(=O)NNC(=S)NC(=O)c2cccs2)cc1,inactive
2,C/C(=N\NC(=O)c1nnn(-c2nonc2N)c1CN(C)c1ccccc1)c1ccccc1O,inactive
3,CNC(=S)N/N=C/c1cc(Br)cc(Br)c1O,> 122 µM (inactive)
4,C/C(=N\NC(=S)NCC(C)(C)C)c1cc(F)cc(F)c1O,> 122 µM (inactive)
5,O=C(N/N=C/c1cc(Cl)cc([N+](=O)[O-])c1O)C(O)(c1ccccc1)c1ccccc1,inactive
6,O=[N+]([O-])c1ccc(O)c(N=Cc2sc3ccccc3c2O)c1,> 122 µM (inactive)
7,C=CCS/C(N)=N\N=C\c1cc(Br)cc([N+](=O)[O-])c1O,> 40.6 µM (inactive)
8,COc1ccc2nc(Nc3nc4cc5c(cc4s3)OCO5)sc2c1,inactive
9,CC(C)(C)c1csc(NNC(=O)c2ccc(Br)cc2)n1,> 122 µM (inactive)
10,CC(C)CC(=O)NC(=S)NNC(=O)c1ccc(NC(=O)C2CCCCC2)cc1,> 122 µM (inactive)
11,CCCC[n+]1c2ccccc2cc2ccccc21,inactive
12,CNC(=S)NN=C(C)c1ccc(OC)cc1O,> 122 µM (inactive)
13,CCC(C)N1C(=O)/C(=C\c2cc3c4c(c2)CCCN4CCC3)C(=O)NC1=S (stereo not drawn),inactive
14,Cc1ccc2sc(NNC(=O)c3ccc4c(c3)OCCO4)nc2c1C,inactive
15,Cc1ccccc1C(=O)NNC(=S)NC(=O)c1cccs1,> 40.6 µM (inactive)
16,O=C1c2ccccc2C(=O)c2c(NCCCN(CCO)CCO)cccc21,> 122 µM (inactive)
17,COc1ccc(C(=O)NC(=S)NNC(=O)c2c(-c3ccccc3)noc2C)cc1OC,> 122 µM (inactive)
18,O=C(CCN1C(=O)/C(=C/c2ccccc2Cl)SC1=S)NNC(=O)c1ccccc1O,inactive
